In US20260091026A1, “METHODS OF TREATING INFLAMMATORY DISEASES” (INTERLINE THERAPEUTICS, INC., priority 2023, published 2026):
pIC50: −log10 of the molar value.

How the values were obtained:
[1] = tested on: THP1-Dual cells, NF-κB pathway (SEAP); assay: THP-1 Dual cell SEAP assay (L18-MDP stimulated); assay type: cell-based; conditions: Homo sapiens, 10 ng/mL L18-MDP, 20-24 h, SEAP readout, read-out: IFNγ THP1 IC50
Method: THP1-Dual™ cells (InvivoGen Cat #thpd-nfis) allow simultaneous assessment of the NF-κB pathway, by monitoring the activity of secreted embryonic alkaline phosphatase (SEAP) as well as the IRF pathway, by assessing the activity of a secreted luciferase (Lucia). Cells were cultured according to manufacturers' recommendations. For the assay, cell concentration was adjusted to 7.14×10^5 cells/mL in assay media (RPMI 1640, 2 mM L-Glutamine, 25 mM HEPES, 10% fetal bovine serum (heat-inactivated for 30 min at 56° C.), Pen-Strep (100 U/mL)) and 35 μL of cell suspension (˜25,000 cells) per well were added to a flat bottom 384-well plate (white opaque). Plate was centrifuged at 300 g for 2 min, compounds were added in serial dilution series according to the plate layout (volumes ˜500 nL-0.0152 nL) and plate was incubated at 37° C. in 5% CO2 for 30 min. Using assay media, a L18-MDP stock solution, that results in a final concentration of 10 ng/mL L18-MDP in each well when adding 15 μL to each well, was prepared. 15 μL of L18-MDP stock solution was added to each well, while 15 μL of assay media was added to the negative control wells. Plates were subsequently incubated at 37° C. in 5% CO2 overnight (20-24 h).
For the SEAP assay: without disturbing the cells at the bottom of the well, 15 μL supernatant was transferred to a clear 384-well flat bottom plate and 35 μL QUANTI-Blue Solution per well was added. Following a 2 h incubation at 37° C., the optical density (OD) was measured at 620-655 nm using a microplate reader (PheraStar FS microplate reader with protocol for OD 620-655 nm).
Values of media-only wells were subtracted and % inhibition for each compound concentration relative to the DMSO/L18-MDP-treated controls was calculated. Inhibition values+/−SD were fitted by non-linear regression using Prism software (GraphPad PRISM Software) to calculate IC50 values.

RIPK2 (KD)/XIAP (BIR2) = target: T1, RIPK2 (KD)/XIAP (BIR2) (Homo sapiens, UniProt O43353); assay: RIPK2-XIAP binding competition PPI assay (TR-FRET); conditions: for Emax: 50 nM of GSK583 = -100% activity, read-out: PPI Amax; for pIC50: GST-RIPK2 / His-XIAP (BIR2)-avi, 120 min at 23° C.
T1 construct: made in house; host or cells: baculovirus-infected Sf9 cells
T1 sequence (O43353 1-310): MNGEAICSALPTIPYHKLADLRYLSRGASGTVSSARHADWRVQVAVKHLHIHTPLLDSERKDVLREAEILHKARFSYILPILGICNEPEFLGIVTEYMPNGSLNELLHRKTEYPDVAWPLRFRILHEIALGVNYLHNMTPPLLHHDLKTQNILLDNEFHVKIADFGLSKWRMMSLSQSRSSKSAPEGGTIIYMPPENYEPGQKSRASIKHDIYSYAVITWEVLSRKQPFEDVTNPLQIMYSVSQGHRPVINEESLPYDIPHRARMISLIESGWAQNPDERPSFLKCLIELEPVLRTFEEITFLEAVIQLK
Excerpt: The ability of selected compounds of Formula (I) to inhibit the binding of an His-XIAP (BIR2)-avi fusion protein to a GST-RIPK2 fusion protein was quantified employing the TR-FRET-based competition assay as described in the following paragraphs.
Recombinant fusion protein of N-terminal Glutathione-S-Transferase (GST) and a fragment of human RIPK2 (amino acids 1-310 of accession number 043353), expressed in baculovirus infected Sf9 cells, purified via glutathione affinity chromatography, was used as GST-RIPK2 fusion protein. Recombinant fusion protein of N-terminal 6xHistidine (His), a fragment of human XIAP (amino acids 152-231 of accession number P98170), and C-terminal avi tag, expressed in baculovirus infected Sf9 cells, purified via Nickel NTA affinity chromatography, was used as the His-XIAP (BIR2)-avi fusion protein.
For the assay, a working solution of 1 nM GST-RIPK2, 25 nM His-XIAP (BIR2)-avi, 6 nM Anti-His-XL665 […] (Revvity Catalogue No. 61HISXLB), and 0.5 nM Anti-GST-Tb(Revvity Catalogue No. 61GSTTLB) in 25 mM Tris-HCl 7.5, 0.5 mM ethylene glycol-bis(2-aminoethylether)-N,N,N′,N′-tetraacetic acid (EGTA), 10 mM magnesium chloride (MgCl2), 2.5 mM dithiothreitol (DTT), 0.01% (w/v) bovine serum albumin (BSA), 0.005% (w/v) Pluronic F-127 (Sigma), 0.5 mM sodium ortho-vanadate, 5 mM-Glycerophosphate disodium salt hydrate (BGP) was prepared. 50 nL of a 100-fold concentrated solution of each test compound in DMSO was dispensed via acoustic dispensing into a white low volume 384-well microtiter plate (Perkin Elmer Catalogue No. 6008280). Subsequently, 5 μL of the assay working solution were added.
The resulting mixture was incubated 120 min at 23° C. Subsequently, the amount of complex formed by the GST-RIPK2, XIAP (BIR2)-avi, Anti-His-XL665, and Anti-GST-Tb was evaluated by measurement of the resonance energy transfer from the Tb-cryptate to the XL665. Therefore, the fluorescence emissions at 520 nm and 665 nm after excitation at 337 nm were measured in a TR-FRET reader, e.g. a Pherastar FS(BMG Labtechnologies, Offenburg, Germany) or an Envision (PerkinElmer). The ratio of the emissions at 665 nm and at 520 nm was taken as the measure of the amount of the complex. The data were normalized (assay reaction without inhibitor=0% activity, 50 nM of GSK583=−100% activity).

| Structure (SMILES) | pIC50 [1] | Emax (RIPK2 (KD)/XIAP (BIR2)) | pIC50 (RIPK2 (KD)/XIAP (BIR2)) |
| --- | --- | --- | --- |
| COc1cc2ncc(-c3cc(C(=O)N[C@H](C)c4ncccc4F)n(C4CNC4)n3)n2cc1S(=O)(=O)C(C)(C)C [Example 141, (R)-1-(azetidin-3-yl)-3-(6-(tert-butylsulfonyl)-7-methoxyimidazo[1,2-a]pyridin-3-yl)-N-(1-(3-fluoropyridin-2-yl)ethyl)-1H-pyrazole-5-carboxamide] | < 5.60 | ≥ 80% | 6.00 to 7.00 |
| COc1cc2ncc(-c3cc(C(=O)NC(C)C)n(C)n3)n2cc1S(=O)(=O)C(C)(C)C [Example 37, 3-(6-(tert-butylsulfonyl)-7-methoxyimidazo[1,2-a]pyridin-3-yl)-N-isopropyl-1-methyl-1H-pyrazole-5-carboxamide] | < 5.60 | 30 to 55% | < 6.00 |
| CCn1nc(-c2cnc3cc(OCCO)c(S(=O)(=O)C(C)(C)C)cn23)cc1C(=O)N[C@H](C)c1ncccc1F [Example 118, (R)-3-(6-(tert-butylsulfonyl)-7-(2-hydroxyethoxy)imidazo[1,2-a]pyridin-3-yl)-1-ethyl-N-(1-(3-fluoropyridin-2-yl)ethyl)-1H-pyrazole-5-carboxamide] | > 7.00 | ≥ 80% | > 8.00 |
| CCn1nc(-c2cnc3cc(OC)c(S(=O)(=O)C(C)(C)C)cn23)cc1C(=O)N[C@H](C)c1ncccn1 [Example 96, (R)-3-(6-(tert-butylsulfonyl)-7-methoxyimidazo[1,2-a]pyridin-3-yl)-1-ethyl-N-(1-(pyrimidin-2-yl)ethyl)-1H-pyrazole-5-carboxamide] | > 7.00 | ≥ 80% | > 8.00 |
| COc1cc2ncc(-c3cc(C(=O)N[C@@H](C)c4ccccc4)n(C)n3)n2cc1S(=O)(=O)C(C)(C)C [Example 8, (S)-3-(6-(tert-butylsulfonyl)-7-methoxyimidazo[1,2-a]pyridin-3-yl)-1-methyl-N-(1-phenylethyl)-1H-pyrazole-5-carboxamide] | < 5.60 | ≥ 80% | < 6.00 |
| COc1cc2ncc(-c3cc(C(=O)NCc4cccnc4)n(C)n3)n2cc1S(=O)(=O)C(C)(C)C [Example 27, 3-(6-(tert-butylsulfonyl)-7-methoxyimidazo[1,2-a]pyridin-3-yl)-1-methyl-N-(pyridin-3-ylmethyl)-1H-pyrazole-5-carboxamide] | < 5.60 | 55 to 80% | < 6.00 |
| CCn1nc(-c2cnc3cc(OCCO)c(S(=O)(=O)C(C)(C)C)cn23)cc1C(=O)N[C@H](C)c1nccs1 [Example 120, (R)-3-(6-(tert-butylsulfonyl)-7-(2-hydroxyethoxy)imidazo[1,2-a]pyridin-3-yl)-1-ethyl-N-(1-(thiazol-2-yl)ethyl)-1H-pyrazole-5-carboxamide] | > 7.00 | ≥ 80% | > 8.00 |
| COc1cc2ncc(-c3cc(C(=O)N[C@H](C)c4ncccn4)n(C(C)C)n3)n2cc1S(=O)(=O)C(C)(C)C [Example 102, (R)-3-(6-(tert-butylsulfonyl)-7-methoxyimidazo[1,2-a]pyridin-3-yl)-1-isopropyl-N-(1-(pyrimidin-2-yl)ethyl)-1H-pyrazole-5-carboxamide] | > 7.00 | ≥ 80% | > 8.00 |
| C[C@@H](CO)COc1cc2ncc(-c3cc(NC(=O)Cc4ccccc4Cl)n(C)n3)n2cc1S(=O)(=O)C(C)(C)C [Example 188, (S)-N-(3-(6-(tert-butylsulfonyl)-7-(3-hydroxy-2-methylpropoxy)imidazo [1,2-a]pyridin-3-yl)-1-methyl-1H-pyrazol-5-yl)-2-(2-chlorophenyl) acetamide] | 6.30 to 7.00 | ≥ 80% | > 8.00 |
| COc1ccccc1[C@@H](C)NC(=O)c1cc(-c2cnc3cc(OCCO)c(S(=O)(=O)C(C)(C)C)cn23)nn1C [Example 75, (R)-3-(6-(tert-butylsulfonyl)-7-(2-hydroxyethoxy)imidazo[1,2-a]pyridin-3-yl)-N-(1-(2-methoxyphenyl)ethyl)-1-methyl-1H-pyrazole-5-carboxamide] | 5.60 to 6.30 | ≥ 80% | 7.00 to 8.00 |
| COc1cc2ncc(-c3cc(C(=O)N[C@@H]4CCc5cccnc54)n(C)n3)n2cc1S(=O)(=O)C(C)(C)C [Example 63, (R)-3-(6-(tert-butylsulfonyl)-7-methoxyimidazo[1,2-a]pyridin-3-yl)-N-(6,7-dihydro-5H-cyclopenta[b]pyridin-7-yl)-1-methyl-1H-pyrazole-5-carboxamide] | < 5.60 | ≥ 80% | 6.00 to 7.00 |
| COc1cc2ncc(-c3cc(C(=O)NCc4cnn5ccccc45)n(C)n3)n2cc1S(=O)(=O)C(C)(C)C [Example 17, 3-(6-(tert-butylsulfonyl)-7-methoxyimidazo[1,2-a]pyridin-3-yl)-1-methyl-N-(pyrazolo[1,5-a]pyridin-3-ylmethyl)-1H-pyrazole-5-carboxamide] | < 5.60 | 55 to 80% | < 6.00 |
| COc1cc2ncc(-c3cc(C(=O)NCc4cccc5ccnn45)n(C)n3)n2cc1S(=O)(=O)C(C)(C)C [Example 20, 3-(6-(tert-butylsulfonyl)-7-methoxyimidazo[1,2-a]pyridin-3-yl)-1-methyl-N-(pyrazolo[1,5-a]pyridin-7-ylmethyl)-1H-pyrazole-5-carboxamide] | < 5.60 | ≥ 80% | 6.00 to 7.00 |
| COc1cc2ncc(-c3cc(C(=O)NCc4ncc(F)cc4F)n(C)n3)n2cc1S(=O)(=O)C(C)(C)C [Example 54, 3-(6-(tert-butylsulfonyl)-7-methoxyimidazo[1,2-a]pyridin-3-yl)-N-((3,5-difluoropyridin-2-yl)methyl)-1-methyl-1H-pyrazole-5-carboxamide] | 5.60 to 6.30 | ≥ 80% | 6.00 to 7.00 |
| COc1cc2ncc(-c3cc(C(=O)NCc4ccccn4)n(C)n3)n2cc1S(=O)(=O)C(C)(C)C [Example 26, 3-(6-(tert-butylsulfonyl)-7-methoxyimidazo[1,2-a]pyridin-3-yl)-1-methyl-N-(pyridin-2-ylmethyl)-1H-pyrazole-5-carboxamide] | 5.60 to 6.30 | ≥ 80% | 6.00 to 7.00 |
| COc1cc2ncc(-c3cc(C(=O)NCc4nc(C)c(C)s4)n(C)n3)n2cc1S(=O)(=O)C(C)(C)C [Example 92, 3-(6-(tert-butylsulfonyl)-7-methoxyimidazo[1,2-a]pyridin-3-yl)-N-((4,5-dimethylthiazol-2-yl)methyl)-1-methyl-1H-pyrazole-5-carboxamide] | < 5.60 | ≥ 80% | 6.00 to 7.00 |
| C[C@@H](NC(=O)c1cc(-c2cnc3cc(OCCO)c(S(=O)(=O)C(C)(C)C)cn23)nn1C1CC1)c1ncccn1 [Example 136, (R)-3-(6-(tert-butylsulfonyl)-7-(2-hydroxyethoxy)imidazo[1,2-a]pyridin-3-yl)-1-cyclopropyl-N-(1-(pyrimidin-2-yl)ethyl)-1H-pyrazole-5-carboxamide] | > 7.00 | ≥ 80% | > 8.00 |
